Reference: the Deep4Chem optical property database
Values belong to the molecule of their own block, whether it stands above or below them.

Experiment: photoluminescence quantum yield (fraction); solvent given as SMILES

SMILES: CC1=CC(C)=[N+]2C1=C(c1ccc(-c3c4ccccc4c(-c4ccccc4)c4ccccc34)cc1)c1c(C)cc(C)n1[B-]2(F)F
photoluminescence quantum yield (in CC#N): 0.11
photoluminescence quantum yield (in CCCCCC): 0.7
photoluminescence quantum yield (in CCO): 0.37
photoluminescence quantum yield (in CN(C)C=O): 0.13
photoluminescence quantum yield (in Cc1ccccc1): 0.65
photoluminescence quantum yield (in ClCCl): 0.57

SMILES: F[B-]1(F)n2c(c3cccc4cccc2c43)=Nc2cccc(Cl)[n+]21
photoluminescence quantum yield (in C1CCOC1): 0.99
photoluminescence quantum yield (in CC#N): 0.99
photoluminescence quantum yield (in CCCCCC): 0.99
photoluminescence quantum yield (in Cc1ccccc1): 0.99
photoluminescence quantum yield (in ClCCl): 0.99

SMILES: CC(C)c1cc(C(C)C)c(B2c3ccccc3Oc3cc(-n4c5ccccc5c5ccc6c(c7ccccc7n6-c6ccccc6)c54)ccc32)c(C(C)C)c1
photoluminescence quantum yield (in CC(C)c1cc(C(C)C)c(-c2ccc(-n3c4ccccc4n4c5ccccc5nc34)nc2)c(C(C)C)c1): 0.506
photoluminescence quantum yield (in O=P(c1ccccc1)(c1ccccc1)c1ccccc1Oc1ccccc1P(=O)(c1ccccc1)c1ccccc1): 0.631

SMILES: Cc1cc(C)c(C2=C3C=c4c(c5ccc(C(C)(C)C)cc5c5cc(C(C)(C)C)ccc45)=[N+]3[B-](F)(F)n3c2cc2c4ccc(C(C)(C)C)cc4c4cc(C(C)(C)C)ccc4c23)c(C)c1
photoluminescence quantum yield (in C1CCCCC1): 0.3
photoluminescence quantum yield (in C1CCOC1): 0.25
photoluminescence quantum yield (in CC#N): 0.24
photoluminescence quantum yield (in Cc1ccccc1): 0.29
photoluminescence quantum yield (in ClCCl): 0.25

SMILES: CC1(C)c2ccccc2N(c2ccc(-c3cnc(C#N)nc3)cc2)c2ccccc21
photoluminescence quantum yield (in Cc1ccccc1): 0.311
photoluminescence quantum yield (in N#Cc1ccc2c(c1)c1ccccc1n2-c1cccc(-n2c3ccccc3c3ccccc32)c1): 1

SMILES: CC1=C2C=CC=[N+]2[B-](F)(F)n2cccc21
photoluminescence quantum yield (in CCCCCC): 0.96
photoluminescence quantum yield (in CO): 1
photoluminescence quantum yield (in ClCCl): 0.88

SMILES: CCCC1(CCC)c2cc(C=C(C#Cc3ccccc3)C#Cc3ccccc3)ccc2-c2ccc(C=C(C#Cc3ccccc3)C#Cc3ccccc3)cc21
photoluminescence quantum yield (in ClC(Cl)Cl): 0.31

SMILES: Cc1ccc(-n2c3ccccc3c3cc(C=C(C#N)C#N)ccc32)cc1
photoluminescence quantum yield (in C1CCOC1): 0.12
photoluminescence quantum yield (in CC#N): 0.04
photoluminescence quantum yield (in CC(C)=O): 0.05
photoluminescence quantum yield (in CCOC(C)=O): 0.09
photoluminescence quantum yield (in CO): 0.03
photoluminescence quantum yield (in CS(C)=O): 0.04
photoluminescence quantum yield (in Cc1ccccc1): 0.11
photoluminescence quantum yield (in ClC(Cl)Cl): 0.08

SMILES: F[B-]1(F)OC(c2ccc3ccccc3c2)=CC(c2ccc3ccccc3c2)=[O+]1
photoluminescence quantum yield (in CC#N): 0.7
photoluminescence quantum yield (in ClC(Cl)(Cl)Cl): 0.9

SMILES: COc1ccc(-c2c3ccc([nH]3)c3nc(c(-c4ccc(C#N)cc4)c4ccc([nH]4)c4ccc([nH]4)c(-c4ccc(OC)cc4)c4ccc2o4)C=C3)cc1
photoluminescence quantum yield (in C1CCOC1): 0.072
photoluminescence quantum yield (in Cc1ccccc1): 0.141
photoluminescence quantum yield (in c1ccccc1): 0.147

SMILES: F[Si-](F)(c1ccccc1)(c1ccccc1)c1cccc2ccccc12
photoluminescence quantum yield (in C1CCOC1): 0.061

SMILES: CCCN1C(=O)C(=CC=CC=C2Oc3ccccc3N2CCCS(=O)(=O)[O-])C(=O)N(CCC)C1=S
photoluminescence quantum yield (in CC(C)=O): 0.41
photoluminescence quantum yield (in CCCCO): 0.37
photoluminescence quantum yield (in CCO): 0.25
photoluminescence quantum yield (in CO): 0.17
photoluminescence quantum yield (in ClC(Cl)Cl): 0.32
photoluminescence quantum yield (in O): 0.04

SMILES: c1ccc(-n2c3ccccc3c3c2c2ccccc2n3-c2ccccc2)cc1
photoluminescence quantum yield (in Cc1ccccc1): 0.404

SMILES: COC(=O)/C=C/c1ccc2ccc3cccc4ccc1c2c34
photoluminescence quantum yield (in C1CCOC1): 0.73
photoluminescence quantum yield (in C1COCCO1): 0.55
photoluminescence quantum yield (in CC#N): 0.46
photoluminescence quantum yield (in CC(C)=O): 0.51
photoluminescence quantum yield (in CCCCCC): 0.46
photoluminescence quantum yield (in CCOC(C)=O): 0.57
photoluminescence quantum yield (in CO): 0.26
photoluminescence quantum yield (in Cc1ccccc1): 0.47

SMILES: O=C1c2ccc(-c3ccc(N(c4ccc(-c5ccccc5)cc4)c4ccc(-c5ccccc5)cc4)cc3)cc2C(=O)c2ccc(-c3ccc(N(c4ccc(-c5ccccc5)cc4)c4ccc(-c5ccccc5)cc4)cc3)cc21
photoluminescence quantum yield (in Cc1ccccc1): 0.62
photoluminescence quantum yield (in c1ccc2c(c1)c1ccccc1n2-c1ccc(-c2ccc(-n3c4ccccc4c4ccccc43)cc2)cc1): 0.76

SMILES: CN(C)c1ccc(C=C/C=C/C=C/c2ccc(C#N)cc2)cc1
photoluminescence quantum yield (in C1CCOC1): 0.112
photoluminescence quantum yield (in CC#N): 0.261
photoluminescence quantum yield (in CCCC#N): 0.142
photoluminescence quantum yield (in CCCCCC): 0.072
photoluminescence quantum yield (in CCCCOCCCC): 0.081
photoluminescence quantum yield (in CCO): 0.211
photoluminescence quantum yield (in CCOCC): 0.092

SMILES: Cc1ccc(-n2c(-c3cccc4cc[n-]c34)[nH+]c3c4ccccc4c4ccccc4c32)cc1
photoluminescence quantum yield (in Cc1ccccc1): 0.015

SMILES: CCCCCCc1ccc(-n2c3[n+](c4c5ccccc5c5ccccc5c42)[B-](C)(C)c2ccc4ccccc4c2-3)cc1
photoluminescence quantum yield (in C1CCOC1): 0.11
photoluminescence quantum yield (in CC#N): 0.07
photoluminescence quantum yield (in Cc1ccccc1): 0.16
photoluminescence quantum yield (in ClCCl): 0.08

SMILES: CCCCCCOc1ccc(-c2cnc(-c3nnc(-c4ccc(OCCCCCC)cc4)o3)o2)cc1
photoluminescence quantum yield (in C1CCCCC1): 0.82
photoluminescence quantum yield (in C1CCOC1): 0.57
photoluminescence quantum yield (in CC#N): 0.75
photoluminescence quantum yield (in CCO): 0.8
photoluminescence quantum yield (in CO): 0.65
photoluminescence quantum yield (in ClC(Cl)Cl): 0.49

SMILES: COc1ccc(-c2cc3ccc4cc(-c5ccc(OC)cc5)cc5ccc(c2)c3c45)cc1
photoluminescence quantum yield (in C1CCCCC1): 0.08
photoluminescence quantum yield (in C1CCOC1): 0.17
photoluminescence quantum yield (in CC#N): 0.13
photoluminescence quantum yield (in CCCCCC): 0.04
photoluminescence quantum yield (in CCO): 0.12
photoluminescence quantum yield (in CN(C)C=O): 0.34
photoluminescence quantum yield (in CO): 0.09
photoluminescence quantum yield (in Cc1ccccc1): 0.09
photoluminescence quantum yield (in ClC(Cl)Cl): 0.04
photoluminescence quantum yield (in ClCCl): 0.09

Second part, the molecule after the results:

photoluminescence quantum yield (in ClCCl): 0.54
SMILES: c1ccc(C2=C(c3ccccc3)c3cccc4c3c(cc3nc5ccccc5nc34)O2)cc1

photoluminescence quantum yield (in ClCCl): 0.51
SMILES: CCCCC(CC)Cn1c2cc(C#N)ccc2c2ccc(C#Cc3ccc4ccc5ccc(C#Cc6ccc7c8ccc(C#N)cc8n(CC(CC)CCCC)c7c6)c6ccc3c4c56)cc21 (stereo unspecified)

photoluminescence quantum yield (in ClCCl): 0.056
SMILES: O=Cc1ccc(C2=Cc3ccccc3P2(=O)c2ccccc2)cc1 (stereo unspecified)

photoluminescence quantum yield (in C1COCCO1): 0.218
SMILES: CC(=O)Nc1ccc(C2=C/C(=C\c3ccc(C#N)cc3)C(=O)N2CC(C)C)cc1

photoluminescence quantum yield (in ClC(Cl)Cl): 0.96
SMILES: Cc1ccc(C#Cc2ccc(C#Cc3ccc(C#Cc4ccccc4C#N)cc3C#N)cc2C#N)cc1

photoluminescence quantum yield (in C1CCCCC1): 0.635
photoluminescence quantum yield (in CCOC(C)=O): 0.634
photoluminescence quantum yield (in CN(C)C=O): 0.51
photoluminescence quantum yield (in CO): 0.396
photoluminescence quantum yield (in ClCCl): 0.653
SMILES: CCN(CC)c1ccc2c(c1)oc(=O)c1c(C)nc3c(c(-c4ccccc4)nn3-c3ccccc3)c12

photoluminescence quantum yield (in c1ccccc1): 0.04
SMILES: CCOC(=O)CSc1nc2c(c(C#N)c1C#N)CCCC2

photoluminescence quantum yield (in ClCCl): 0.02
SMILES: CSc1ccc(/C=C/c2cnc3ccccc3n2)cc1

photoluminescence quantum yield (in CO): 0.0016
photoluminescence quantum yield (in ClCCl): 0.0015
SMILES: CCCCCCN(CCCCCC)c1ccc(C#Cc2ccc([N+](=O)[O-])cc2)cc1

photoluminescence quantum yield (in ClCCl): 0.04
SMILES: COc1ccc(/C=C/C2=C3CCc4ccccc4C3=[O+][B-](F)(F)O2)cc1

photoluminescence quantum yield (in C1CCOC1): 0.746
SMILES: CC1=[N+]2C(=C(c3ccccc3)c3ccc(/C=C/c4ccc(C(=C(c5ccccc5)c5ccccc5)c5ccccc5)cc4)n3[B-]2(F)F)C=C1

photoluminescence quantum yield (in CCO): 0.033
photoluminescence quantum yield (in ClCCl): 0.87
SMILES: CCN(CC)c1ccc2cc(C#N)/c(=N\C(=O)c3ccccc3)oc2c1

photoluminescence quantum yield (in C1CCOC1): 0.013
SMILES: F[B-]1(F)OC(c2ccccc2)=C(c2ccccc2)c2oc3ccccc3[n+]21

photoluminescence quantum yield (in C1CCCCC1): 0.33
SMILES: C[Si](C)(C)c1ccc([Si](C)(C)C)c2ccccc12

photoluminescence quantum yield (in CC#N): 0.08
SMILES: Cc1ccc(C)c2nc3c(=O)[nH]c(=O)[nH]c3nc12

photoluminescence quantum yield (in C1CCOC1): 0.063
SMILES: Cc1cc(C)c([B-]2(c3c(C)cc(C)cc3C)[O+]=P(c3ccccc3)(c3ccccc3)c3cc(C#Cc4ccccc4)sc3-c3sc(C#Cc4ccccc4)cc32)c(C)c1

photoluminescence quantum yield (in C1CCOC1): 0.442
SMILES: CC(C)(C)c1ccc(C2=C(c3ccc(N(c4ccccc4)c4ccccc4)cc3)S(=O)(=O)c3c2sc(-c2ccc(N(c4ccccc4)c4ccccc4)cc2)c3-c2ccc(C(C)(C)C)cc2)cc1
